Results published in patent US9187471B2, “Pyrido [4,3-b] indole and pyrido [3,4-b] indole derivatives and methods of use” (Medivation Technologies, Inc., priority 2010, dated 2015).

Assays:
[1] = target: T1, human recombinant adrenergic α2C receptor (Homo sapiens, UniProt P18825); test: Adrenergic α2C radioligand binding ([3H]MK-912); conditions: read-out: Adrenergic (0.1 μM) a2C, percent inhibition of specific binding; compound at 0.1 μM; 1 nM [3H]MK-912
T1 construct: expressed in transfected cells; host or cells: insect Sf9 cells
T1 sequence (P18825 1-462): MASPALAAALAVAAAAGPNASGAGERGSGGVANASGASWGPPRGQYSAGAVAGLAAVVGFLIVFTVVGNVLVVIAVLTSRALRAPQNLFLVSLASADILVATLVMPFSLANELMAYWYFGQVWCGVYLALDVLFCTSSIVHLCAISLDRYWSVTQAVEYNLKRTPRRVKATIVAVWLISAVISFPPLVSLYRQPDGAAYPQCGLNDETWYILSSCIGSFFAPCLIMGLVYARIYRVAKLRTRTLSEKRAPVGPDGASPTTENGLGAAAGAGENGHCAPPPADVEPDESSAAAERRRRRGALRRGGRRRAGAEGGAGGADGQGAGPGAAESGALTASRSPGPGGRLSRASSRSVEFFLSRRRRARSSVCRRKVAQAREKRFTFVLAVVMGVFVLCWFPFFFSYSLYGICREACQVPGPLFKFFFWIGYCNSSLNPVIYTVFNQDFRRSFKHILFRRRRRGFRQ
How it was run: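 Membranes from Sf9 cells expressing the human receptor, in 50 mM Tris-HCl pH 7.4 with 12.5 mM MgCl2 and 2 mM EDTA, incubated with compound and 1 nM [3H]MK-912 for 60 min at 25 °C. Non-specific binding defined with 10 μM WB-4101. Filter-bound radioactivity counted; percent inhibition of specific binding reported.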

[2] = target: T2, rat adrenergic α1A receptor (Rattus norvegicus, UniProt P43140); test: Adrenergic α1A radioligand binding ([3H]Prazosin); conditions: read-out: Adrenergic (0.1 μM) a1A, percent inhibition of specific binding; compound at 0.1 μM; 0.25 nM [3H]Prazosin
T2 construct: rat adrenergic α1A receptor obtained from Wistar Rat submaxillary glands; from tissue; host or cells: Wistar rat submaxillary glands
T2 sequence (P43140 1-466): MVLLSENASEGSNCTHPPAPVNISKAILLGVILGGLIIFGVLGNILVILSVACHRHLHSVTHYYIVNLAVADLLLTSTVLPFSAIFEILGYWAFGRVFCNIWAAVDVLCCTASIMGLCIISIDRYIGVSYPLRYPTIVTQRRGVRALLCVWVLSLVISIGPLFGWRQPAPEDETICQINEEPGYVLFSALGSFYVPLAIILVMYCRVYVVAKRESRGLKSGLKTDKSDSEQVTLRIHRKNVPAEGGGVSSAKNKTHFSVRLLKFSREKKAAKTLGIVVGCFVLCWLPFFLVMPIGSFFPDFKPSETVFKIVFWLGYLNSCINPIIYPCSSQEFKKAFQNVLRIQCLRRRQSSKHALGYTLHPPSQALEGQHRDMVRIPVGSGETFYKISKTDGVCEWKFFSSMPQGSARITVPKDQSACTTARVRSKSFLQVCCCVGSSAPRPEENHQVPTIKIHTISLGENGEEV
How it was run: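 Wistar rat submaxillary gland receptor in 50 mM Tris-HCl pH 7.4 with 0.5 mM EDTA, incubated with compound and 0.25 nM [3H]Prazosin for 60 min at 25 °C.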

[3] = target: T3, human recombinant serotonin (5-Hydroxytryptamine) 5-HT6 receptor (Homo sapiens, UniProt P50406); test: Serotonin 5-HT6 radioligand binding ([3H]LSD); conditions: compound at 0.1 μM; read-out: Inhibition of ligand binding, Serotonin 5-HT6 (percent inhibition of specific binding)
T3 construct: expressed in transfected cells; host or cells: HeLa
T3 sequence (P50406 whole entry): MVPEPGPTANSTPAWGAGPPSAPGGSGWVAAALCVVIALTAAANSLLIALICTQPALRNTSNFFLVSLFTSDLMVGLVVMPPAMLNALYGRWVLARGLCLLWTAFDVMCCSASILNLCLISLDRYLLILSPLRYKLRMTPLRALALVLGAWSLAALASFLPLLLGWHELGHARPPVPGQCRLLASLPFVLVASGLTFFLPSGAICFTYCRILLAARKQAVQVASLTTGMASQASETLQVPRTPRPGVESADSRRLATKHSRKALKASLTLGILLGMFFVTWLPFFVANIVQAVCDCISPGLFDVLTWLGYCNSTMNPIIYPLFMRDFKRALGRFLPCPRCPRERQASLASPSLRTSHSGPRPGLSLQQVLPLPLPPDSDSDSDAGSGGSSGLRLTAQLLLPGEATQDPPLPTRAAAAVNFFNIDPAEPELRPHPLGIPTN
Source text: Receptor proteins were filtered and washed, the filters were then counted to determine [3H]LSD specifically bound.

[4] = target: T4, human recombinant dopamine D2L receptor (Homo sapiens, UniProt P14416); test: Dopamine D2L radioligand binding ([3H]Spiperone); conditions: 0.16 nM [3H]Spiperone; for inhibition at 0.1 µM: read-out: Dopamine D2L (0.1 μM), percent inhibition of specific binding, compound at 0.1 μM; for inhibition at 1 µM: read-out: Dopamine D2L (1 μM), percent inhibition of specific binding, compound at 1 μM
T4 construct: expressed in transfected cells; host or cells: CHO
T4 sequence (P14416 whole entry): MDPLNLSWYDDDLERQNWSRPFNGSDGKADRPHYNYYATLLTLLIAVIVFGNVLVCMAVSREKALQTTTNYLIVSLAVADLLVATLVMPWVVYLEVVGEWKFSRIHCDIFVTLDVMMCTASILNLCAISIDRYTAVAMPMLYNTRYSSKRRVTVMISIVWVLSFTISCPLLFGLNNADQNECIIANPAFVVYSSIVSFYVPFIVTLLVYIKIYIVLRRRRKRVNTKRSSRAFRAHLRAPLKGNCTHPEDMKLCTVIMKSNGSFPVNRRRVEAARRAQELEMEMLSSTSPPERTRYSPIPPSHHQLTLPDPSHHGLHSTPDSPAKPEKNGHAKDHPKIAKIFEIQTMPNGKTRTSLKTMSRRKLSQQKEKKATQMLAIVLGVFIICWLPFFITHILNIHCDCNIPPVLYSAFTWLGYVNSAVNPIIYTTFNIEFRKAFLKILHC
Procedure: Non-specific binding was estimated in the presence of 10 μM Haloperidol. Receptor proteins were filtered and washed, the filters were then counted to determine [^3H]Spiperone specifically bound.

[5] = target: T5, human recombinant serotonin (5-Hydroxytryptamine) 5-HT5A receptor (Homo sapiens, UniProt P47898); test: Serotonin 5-HT5A radioligand binding ([3H]LSD); conditions: compound at 0.1 μM; read-out: Inhibition of ligand binding, Serotonin 5-HT5A (percent inhibition of specific binding)
T5 construct: expressed in transfected cells; host or cells: CHO-K1
T5 sequence (P47898 whole entry): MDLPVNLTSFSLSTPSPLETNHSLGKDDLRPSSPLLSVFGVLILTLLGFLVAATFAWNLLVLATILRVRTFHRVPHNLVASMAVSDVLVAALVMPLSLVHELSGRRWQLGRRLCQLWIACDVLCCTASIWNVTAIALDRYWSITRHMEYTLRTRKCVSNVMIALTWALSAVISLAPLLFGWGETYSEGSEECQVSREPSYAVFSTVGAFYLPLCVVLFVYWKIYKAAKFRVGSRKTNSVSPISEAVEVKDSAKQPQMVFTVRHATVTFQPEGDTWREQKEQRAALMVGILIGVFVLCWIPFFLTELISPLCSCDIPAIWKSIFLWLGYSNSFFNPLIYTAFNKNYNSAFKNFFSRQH
Procedure: Compounds of the invention were incubated with 1.7 nM [^3H]Lysergic acid diethylamide (LSD) for 60 min at 37° C. […] Receptor proteins were filtered and washed, the filters were counted to determine [^3H]LSD specifically bound.

[6] = target: T6, human recombinant serotonin (5-Hydroxytryptamine) 5-HT7 receptor (Homo sapiens, UniProt P34969); test: Serotonin 5-HT7 radioligand binding ([3H]LSD); conditions: compound at 0.1 μM; read-out: Inhibition of ligand binding, Serotonin 5-HT7 (percent inhibition of specific binding)
T6 construct: expressed in transfected cells; host or cells: CHO
T6 sequence (P34969 whole entry): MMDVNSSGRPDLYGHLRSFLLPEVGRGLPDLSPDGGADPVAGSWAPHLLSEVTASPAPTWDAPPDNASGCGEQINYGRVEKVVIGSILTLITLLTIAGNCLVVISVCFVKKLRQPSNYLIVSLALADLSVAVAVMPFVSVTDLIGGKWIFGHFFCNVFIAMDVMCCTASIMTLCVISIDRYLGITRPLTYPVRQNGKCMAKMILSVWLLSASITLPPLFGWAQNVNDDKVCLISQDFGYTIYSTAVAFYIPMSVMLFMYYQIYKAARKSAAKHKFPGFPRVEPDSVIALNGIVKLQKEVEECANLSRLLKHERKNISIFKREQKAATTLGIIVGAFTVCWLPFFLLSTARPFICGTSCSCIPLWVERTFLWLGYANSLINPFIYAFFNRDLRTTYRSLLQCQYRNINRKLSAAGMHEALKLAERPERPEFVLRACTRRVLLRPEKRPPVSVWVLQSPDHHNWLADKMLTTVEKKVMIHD
Procedure: Lysergic acid diethylamide (LSD) for 120 min. at 25° C. […] Receptor proteins were filtered and washed, the filters were then counted to determine [^3H]LSD specifically bound.

[7] = target: T7, human recombinant histamine H1 receptor (Homo sapiens, UniProt P35367); test: Histamine H1 radioligand binding ([3H]Pyrilamine); conditions: read-out: Histamine H1 Binding (1 μM), percent inhibition of specific binding; compound at 1 μM; 1.2 nM [3H]Pyrilamine
T7 construct: expressed in transfected cells; host or cells: CHO-K1
T7 sequence (P35367 whole entry): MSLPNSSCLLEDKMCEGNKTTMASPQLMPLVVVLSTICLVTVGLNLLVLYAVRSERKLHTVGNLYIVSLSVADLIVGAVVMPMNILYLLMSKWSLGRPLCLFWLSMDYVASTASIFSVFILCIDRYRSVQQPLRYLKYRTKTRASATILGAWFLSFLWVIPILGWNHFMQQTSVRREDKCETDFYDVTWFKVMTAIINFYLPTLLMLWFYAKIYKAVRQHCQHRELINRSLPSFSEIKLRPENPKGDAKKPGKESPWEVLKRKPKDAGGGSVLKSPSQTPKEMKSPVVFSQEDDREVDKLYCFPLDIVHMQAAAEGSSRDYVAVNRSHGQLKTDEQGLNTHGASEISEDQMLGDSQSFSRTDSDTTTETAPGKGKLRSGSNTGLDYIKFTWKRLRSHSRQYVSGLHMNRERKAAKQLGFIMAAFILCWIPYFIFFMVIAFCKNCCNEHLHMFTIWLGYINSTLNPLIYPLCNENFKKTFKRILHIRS
How it was run: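 Results expressed as percent inhibition of specific [3H]pyrilamine binding, counted on filters after washing. Receptor source: CHO-K1 cells expressing recombinant human H1, in modified Tris-HCl buffer (50 mM, pH 7.4; 2 mM MgCl2, 100 mM NaCl, 250 mM sucrose). 1 μM pyrilamine defined non-specific binding.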

Compound | inhibition at 0.1 µM [1] [%] | inhibition at 0.1 µM [2] [%] | inhibition at 0.1 µM [3] [%] | inhibition at 0.1 µM [4] [%] | inhibition at 0.1 µM [5] [%] | inhibition at 0.1 µM [6] [%] | inhibition at 1 µM [7] [%] | inhibition at 1 µM [4] [%]
Cc1ccc2c(c1)c1c(n2-c2ccc3nc(C)ccc3c2)CCN(C)C1 [Compound No. 157, 2,8-dimethyl-5-(2-methyl-quinolin-6-yl)-2,3,4,5-tetrahydro-1H-pyrido[4,3-b]indole] | -1 | 7 | 22 | -6 | 20 | 16 | -17 | 
CNC(=O)c1cccc(-c2cscc2-n2c3c(c4cc(C)ccc42)CN(C)CC3)c1 [Compound No. 154] | 3 | 28 | 7 | 1 | 85 | 73 | 20 | 
Cc1ccc2c(c1)c1c(n2-c2ccc(-c3cccc4[nH]ncc34)cn2)CCN(C)C1 [Compound No. 147, 5-(5-(1H-indazol-4-yl)pyridin-2-yl)-2,8-dimethyl-2,3,4,5-tetrahydro-1H-pyrido[4,3-b]indole] | 1 | 37 | 15 |  | 23 | 14 | 8 | 33
CNC(=O)c1cccc(-c2ccc(-n3c4c(c5cc(C)ccc53)CN(C)CC4)nc2)c1 [Compound No. 143, 3-(6-(2,8-dimethyl-3,4-dihydro-1H-pyrido[4,3-b]indol-5(2H)-yl)pyridin-3-yl)-N-methylbenzamide] | 8 | 32 | -8 |  | 17 | 11 | 8 | 19
Cc1ccc2c(c1)c1c(n2-c2ccccc2-c2cnc(N(C)C)nc2)CCN(C)C1 [Compound 31] | 12 | 51 | 20 |  | 8 | -2 | 3 | 12
Cc1ccc2c(c1)c1c(n2-c2cscc2-c2cncc3ccccc23)CCN(C)C1 [Compound 34] | 5 | 4 | 11 |  | 56 | 43 | 6 | 31
Cc1ccc2c(c1)c1c(n2-c2cscc2-c2ccc(F)nc2)CCN(C)C1 [Compound 35] | 47 | 78 | 21 |  | 66 | 93 | 3 | 17
Cc1ccc2c(c1)c1c(n2-c2cscc2-c2sccc2C)CCN(C)C1 [Compound 39] | 50 | 31 | 65 |  | 83 | 97 | 58 | 54
Cc1ccc2c(c1)c1c(n2-c2ccccc2-c2ccc(F)nc2)CCN(C)C1 [Compound No. 84, 5-(2-(6-fluoropyridin-3-yl)phenyl)-2,8-dimethyl-2,3,4,5-tetrahydro-1H-pyrido[4,3-b]indole] | 23 | 61 | 20 |  | 29 | 25 | 26 | 8
Cc1ccc2c(c1)c1c(n2-c2ccc(-c3cncc4ccccc34)cn2)CCN(C)C1 [Compound No. 135, 5-(5-(isoquinolin-4-yl)pyridin-2-yl)-2,8-dimethyl-2,3,4,5-tetrahydro-1H-pyrido[4,3-b]indole] | 13 | 36 | 6 |  | 77 | 22 | 10 | 12
CNC(=O)c1ccc(-c2ccccc2-n2c3c(c4cc(C)ccc42)CN(C)CC3)cc1 [Compound No. 72, 2′-(2,8-dimethyl-3,4-dihydro-1H-pyrido[4,3-b]indol-5(2H)-yl)-N-methylbiphenyl-4-carboxamide] | 1 | 36 | 3 |  | 14 | 30 | 18 | 16
Cc1ccc2c(c1)c1c(n2-c2ccc3cnccc3c2)CCN(C)C1 [Compound 38] | 11 | 36 | 73 |  | 29 | 33 | -4 | 53
Cc1ccc2c(c1)c1c(n2-c2ccc(-c3ccc(S(N)(=O)=O)cc3)cn2)CCN(C)C1 [Compound No. 145, 4-(6-(2,8-dimethyl-3,4-dihydro-1H-pyrido[4,3-b]indol-5(2H)-yl)pyridin-3-yl)benzenesulfonamide] | 6 | 44 | -11 |  | 15 | 32 | 17 | 8
Cc1ccc2c(c1)c1c(n2-c2cccc(-c3cn[nH]c3)c2)CCN(C)C1 [Compound No. 70, 5-(3-(1H-pyrazol-4-yl)phenyl)-2,8-dimethyl-2,3,4,5-tetrahydro-1H-pyrido[4,3-b]indole] | 8 | 5 | 0 |  | 43 | 50 | 8 | 15
Cc1ccc2c(c1)c1c(n2-c2cccc(-c3cccn3C)c2)CCN(C)C1 [Compound No. 69, 2,8-dimethyl-5-(3-(1-methyl-1H-pyrrol-2-yl)phenyl)-2,3,4,5-tetrahydro-1H-pyrido[4,3-b]indole] | -4 | 8 | 21 |  | 36 | 25 | 42 | 12
